Assay results reported in US20230203058A1, “MACROCYCLIC DIAMINE DERIVATIVES AS ENT INHIBITORS FOR THE TREATMENT OF CANCERS, AND COMBINATION THEREOF WITH ADENOSINE RECEPTOR ANTAGONISTS” (ITEOS BELGIUM SA, priority 2020, published 2023).
Like-named read-outs stand apart in the source and are kept apart here.

Experiments:
[1] = test system: human T cells; assay: T cell stimulation assay (Example III, FIG. 1); format: cell-based; conditions: ATP 100 µM
Method: FIG. 1A depicts a graph of log concentration (M) versus percent proliferation. Purified human T cells were activated with anti-CD3/CD28 dynabeads in the presence of ATP (100 µM) as a source of adenosine for 96 h and then proliferation was assessed by CFSE dilution.
FIG. 1B depicts a graph of log concentration of ENT1 inhibitor (M) versus percent proliferation. Experiment performed as in FIG. A with the addition of HSA and AAG to the culture medium (final concentration 2 and 0.1%, respectively).
Peripheral blood mononuclear cells (PBMCs) were first isolated via centrifugation of fresh whole blood over Lymphoprep using SepMate-50 tubes (both from […] Technologies) according to the manufacturer’s instructions. Human T cells were then isolated from the PBMCs using the EasySep Human T cell Isolation Kit ([…] Technologies) according to the manufacturer’s instructions and the cells were cryopreserved in FBS with 10% DMSO until required.
Cryopreserved human T cells were thawed on the day of the experiment and resuspended in PBS with 10% FBS at approximately 1 × 10^7 cells/ml. This cell suspension was diluted 1:1 with 2 µM CFSE solution (ThermoFisher Scientific) in PBS and incubated for 5 minutes at room temperature. The labelling reaction was quenched by further addition of PBS with 10% FBS, and then the cells were washed into X-VIVO15 medium (Lonza) for use in the T cell assay.
CFSE-labelled T cells were plated at 2 × 10^4 cells per well in 384 well plates in the presence of ATP (100 µM, Sigma-Aldrich) as a source of adenosine. Activation was driven by the addition of Dynabeads Human T-Activator CD3/CD28 (ThermoFisher Scientific) at a ratio of 0,5 beads per T cell. ENT1 inhibitor molecules including the reference molecule dilazep (Tocris Bioscience) were added, the volume of the wells was adjusted to 50 µl with X-VIVO15 medium and the plates were cultured in a humidified incubator for 96 h at 37° C. with 5% CO2. In some experiments the culture was supplemented with human serum albumin (HSA) and alpha-1-acid glycoprotein (AAG, both Sigma-Aldrich) at final concentrations of 2 and 0,1%, respectively.
Analysis of proliferation via CSFE dilution was performed by flow cytometry using a BD LSR Fortessa with data analysis on FlowJo (BD Biosciences).

[2] = test system: naive CD4+ T cells cultured with allogeneic monocyte-derived dendritic cells; assay: Mixed leukocyte reaction assay (FIG. 2); format: cell-based, human; conditions: 300 µM ATP; for Rescue of proliferation of naive CD4 T cells in MLR / IFNγ production in MLR: Compound 2 50 nM; for Rescue of proliferation of naive CD4 T cells in MLR: Compound 11 500 nM; for IFNγ production in MLR: Compound 11 500 nM (FIG. 2B)
Method: FIG. 2A depicts a bar graph of percent proliferation normalized to no ATP. Naive CD4^+ T cells were cultured with allogeneic monocyte-derived dendritic cells at a ratio of 10:1 for 96 h in the presence of 300 µM ATP as a source of adenosine and the molecules Compound 2 (50 nM), Compound 11 (500 nM) or concentration-matched DMSO. Proliferation of T cells was assessed by CFSE dilution and normalized to the level observed in T cells activated in the absence of ATP.
FIG. 2B depicts two bar graphs, one showing TNF concentration (pg/mL), and the other showing IFNy (pg/mL). Experiment performed as described in FIG. 2A and supernatant sampled for analysis of cytokines by alphaLISA. **** = p < 0.0001; *** = p < 0.001; ** = p < 0.01 and * = p < 0.05; derived from one-way ANOVA with Tukey’s multiple comparisons test.
PBMCs were isolated from buffy coats via centrifugation of fresh whole blood over Lymphoprep using SepMate-50 tubes (both from […] Technologies) according to the manufacturer’s instructions. Naive CD4^+ T cells were isolated from the PBMCs using the Naive CD4^+ T cell Isolation Kit II, human (Miltenyi Biotec) according to the manufacturer’s instructions and cryopreserved in FBS with 10% DMSO until required. CD14^+ monocytes were also isolated from the PBMC samples using CD14 MicroBeads, human (MiltenyiBiotec) according to the manufacturer’s instructions and used on the day of isolation.
Monocytes were resuspended in RPMI (Lonza) with 10% FBS and cultured in a humidified incubator at 37° C. with 5% CO2 for 6 days in the presence of GM-CSF and IL-4 (R&D Systems), each at 50 ng/ml in 24 well plates. On day 3 of culture half of the medium was carefully removed and replaced with fresh medium containing 100 ng/ml of GM-CSF and IL-4.
On day 6 of culture monocyte-derived dendritic cells (MoDCs) were harvested and washed into X-VIVO15 medium containing 5% human male AB serum (Biowest) and 1 mM sodium pyruvate (Lonza). Naive CD4^+ T cells from a different donor were thawed and CFSE-labelled as described above and washed into the same medium as the MoDCs. Finally, 1 × 10^4 MoDCs were cultured with 1 × 10^5 naive CD4^+ T cells in the presence of ATP (Sigma-Aldrich), uridine or uracil in 96 round well bottom plates for 72 h in a humidified incubator at 37° C. with 5% CO2.
Analysis of proliferation of CD4 T cells via CSFE dilution was performed by flow cytometry using a BD LSR Fortessa with data analysis on FlowJo (BD Biosciences). Cytokines were analysed by alphaLISA (Perkin Elmer) according to the manufacturer’s instructions.

[3] = anti-CD3/CD28 dynabeads, 96 h (FIG. 1A), read-out: IC50 of restoration of T cell proliferation
[4] = with HSA 2% and AAG 0,1% (FIG. 1B), read-out: IC50 of restoration of T cell proliferation under high protein binding conditions

SMILES | IC50 [1, 3] [nM] | IC50 [1, 4] [nM] | Production of TNF in MLR ([2]; Compound 2 50 nM (FIG. 2B)) | Rescue of proliferation of naive CD4 T cells in MLR [2] | IFNγ production in MLR [2]
COc1cc(C(=O)O[C@H]2CCCOc3cc(cc(OC)c3OC)C(=O)OCCCN3CCCN(CC2)CC3)cc(OC)c1OC [Compound 2, (12S)-74,75-dimethoxy-6-oxo-5,8-dioxa-1(1,4)-diazepana-7(1,3)-benzenacyclotetradecaphane-12-yl 3,4,5-trimethoxybenzoate] | 0.3 | 2 | clear restoration with Compound 2, even beyond the control level | near complete rescue | significant and consistent increase
COc1cc(C(=O)OC2CCCOc3cc(cc(OC)c3OC)C(=O)N(C)CCCN3CCCN(CC2)CC3)cc(OC)c1OC (stereo not drawn) [Compound 11, 74,75-dimethoxy-5-methyl-6-oxo-8-oxa-5-aza-1(1,4)-diazepana-7(1,3)-benzenacyclotetradecaphane-12-yl 3,4,5-trimethoxybenzoate] | 7 | 125 |  | weaker restoration | smaller effect
